As usually defined, the melting point is the temperature of the solid-liquid transition. In turn, `COc1ccc(-c2cc3ccccc3n2C(=O)OC(C)(C)C)cc1` [4g, tert-butyl 2-(4-methoxyphenyl)-1H-indole-1-carboxylate] yielded a melting point of 89 to 90 °C.

`COc1cccc2c1cc(-c1ccccc1)n2C(=O)OC(C)(C)C` [4r, tert-butyl 4-methoxy-2-phenyl-1H-indole-1-carboxylate] yielded a melting point of 81 to 82 °C.

With `CC(C)(C)OC(=O)n1c(-c2ccc3ccccc3c2)cc2ccccc21` [4l, tert-butyl 2-(naphthalen-2-yl)-1H-indole-1-carboxylate], the melting point lay in the range of 134 to 135 °C.

Take `CC(C)(C)OC(=O)n1c(-c2ccc(Cl)cc2)cc2ccccc21` [4b, tert-butyl 2-(4-chlorophenyl)-1H-indole-1-carboxylate]: the melting point lay in the range of 86 to 87 °C.

Regarding `CC(C)(C)OC(=O)n1c(-c2ccccc2)cc2ccc(Cl)cc21` [4v, tert-butyl 6-chloro-2-phenyl-1H-indole-1-carboxylate], the melting point was 61 to 62 °C.

In turn, `CC(C)(C)OC(=O)n1c(-c2ccccc2)cc2c(F)cccc21` [4p, tert-butyl 4-fluoro-2-phenyl-1H-indole-1-carboxylate] gave a melting point of 121 to 122 °C.

For `CC(C)(C)OC(=O)n1c(-c2ccc(Br)cc2)cc2ccccc21` [4c, tert-butyl 2-(4-bromophenyl)-1H-indole-1-carboxylate], the melting point was 88 to 89 °C.

Take `CC(C)(C)OC(=O)n1c(-c2ccccc2)cc2ccccc21` [compound 4, tert-butyl 2-phenyl-1H-indole-1-carboxylate]: the melting point was in the range of 70 to 72 °C.

In turn, `CC(C)(C)OC(=O)n1c(-c2ccccc2)cc2ccc(Br)cc21` [4w, tert-butyl 6-bromo-2-phenyl-1H-indole-1-carboxylate] had a melting point of 54 to 55 °C.

`Cc1c(-c2ccccc2)n(C(=O)OC(C)(C)C)c2ccccc12` [4aa, tert-butyl 3-methyl-2-phenyl-1H-indole-1-carboxylate]: the melting point was in the range of 110 to 112 °C.

For the compound `CC(C)(C)OC(=O)n1c(-c2ccccc2)cc2c(Cl)cccc21` [4q, tert-butyl 4-chloro-2-phenyl-1H-indole-1-carboxylate], the melting point was 111 to 112 °C.

As to `CC(C)(C)OC(=O)n1c(-c2ccc(C(F)(F)F)cc2)cc2ccccc21` [4e, tert-butyl 2-(4-(trifluoromethyl)phenyl)-1H-indole-1-carboxylate], the melting point was 108 to 109 °C.

`CC(C)(C)OC(=O)n1c(-c2ccccc2)cc2ccc(C(F)(F)F)cc21` [4x, tert-butyl 2-phenyl-6-(trifluoromethyl)-1H-indole-1-carboxylate] yielded a melting point of 104 °C.

The compound `Cc1ccc2cc(-c3ccccc3)n(C(=O)OC(C)(C)C)c2c1` [4y, tert-butyl 6-methyl-2-phenyl-1H-indole-1-carboxylate] returned a melting point of 62 to 64 °C.

Source of the values: patent publication US9527812B2, “N-heterocyclic carbene-catalyzed synthesis of 2-aryl indoles” (Northwestern University, priority 2014, dated 2016).
